Assay results as given in US10668047B2, “Aziridine containing DNA alkylating agents” (priority 2015, dated 2020).
Read-outs that look alike come from different tables or passages of the source.

System: H460 non-cell lung cancer human tumor cell line
Assay: In vitro human tumor cell line cytotoxicity (proliferation) assay, AlamarBlue
Format: cell-based
Experimental: IC50 values are reported in micromolar and result from exposure of compound at various concentrations for 2 hrs followed by a wash step and addition of fresh media followed by growth and cell viability staining and comparison to a media only treated control.
Specifically, exponentially growing cells are seeded at a density of 4×10^3 cells per well in a 96 well plate and incubated at 37° C. in 5% CO2, 95% air and 100% relative humidity for 24 hours prior to addition of test compounds. Compounds are solubilized in 100% DMSO at 200 times the desired final test concentration. At the time of drug addition, compounds are further diluted to 4 times the desired final concentration with complete medium. Aliquots of 50 μl of compound at specified concentrations are added to microtiter wells already containing 150 μl of medium, resulting in the final drug concentration reported. After drug addition, the plates are incubated for an additional 2 hours at 37° C., 5% CO2, 95% air, and 100% relative humidity, then the drug is washed off and fresh medium is added and the plates are incubated for addition 70 hrs at 37° C., 5% CO2, 95% air and 100% relative humidity. At the end of this incubation, the viable cells are quantified using the AlamarBlue assay. The drug concentration resulting in growth inhibition of 50% (IC50) is calculated using Prism software (Irvine, Calif.), and the results are listed in the table.

[1] = Homo sapiens, NCI-H460, H460 cells, under air, 2 hrs exposure, wash, then 70 hrs growth, read-out: IC50 (air)
[2] = Homo sapiens, NCI-H460, H460 cells, under nitrogen, 2 hrs exposure, wash, then 70 hrs growth, read-out: IC50 (N2)
[3] = H460 cells, under air, 2 hrs exposure, wash, then 70 hrs growth, read-out: IC50 (air)
[4] = H460 cells, under nitrogen, 2 hrs exposure, wash, then 70 hrs growth, read-out: IC50 (N2)
[5] = Homo sapiens, NCI-H460, read-out: IC50 (N2), H460 cells, under nitrogen, 2 hrs exposure, wash, then 70 hrs growth
[6] = Homo sapiens, NCI-H460, read-out: IC50 (air), H460 cells, under air, 2 hrs exposure, wash, then 70 hrs growth

SMILES | IC50 [1] [µM] | IC50 [2] [µM] | other results
CC(OP(=O)(N1CC1)N1CC1)c1ccc([N+](=O)[O-])c(-c2ccccc2)c1 (stereo not drawn) [compound 2785] | 47 | 1.6 | 
CC(OP(=O)(N1CC1)N1CC1)c1ccc([N+](=O)[O-])c(N(C)O)c1 (stereo not drawn) [compound 2707] | 0.2 | 0.1 | 
CC(OP(=O)(N1CC1)N1CC1)c1ccc([N+](=O)[O-])c(-c2cn(-c3ccc(F)cc3)nn2)c1 (stereo not drawn) [compound 2806] | 5.4 | 0.3 | 
Cn1c([N+](=O)[O-])cnc1C(OP(=O)(N1CC1)N1CC1)C1CCCCC1 (stereo not drawn) [compound 2633] | 83 | 0.3 | 
Cn1c([N+](=O)[O-])cnc1C(CO)OP(=O)(C1CC1)N1CC1 (stereo not drawn) [compound 2654] | > 500 | 260 | 
CC(OP(=O)(N1CC1)N1CC1)c1ccc([N+](=O)[O-])c(N=[N+]=[N-])c1 (stereo not drawn) [compound 2691] | 2.3 | 2.3 | 
C=CCC(OP(=O)(N1CC1)N1CC1)c1ncc([N+](=O)[O-])n1C (stereo not drawn) [compound 2527] | 39 | 0.09 | 
CC(OP(=O)(N1CC1)N1CC1)c1ccc([N+](=O)[O-])c(-n2ccnc2)c1 (stereo not drawn) [compound 2804] |  |  | IC50 [3]: 310 µM; IC50 [4]: 0.6 µM
CC(OP(=O)(N1CC1)N1CC1)c1ccc([N+](=O)[O-])c(-n2ccnc2-c2ccccc2)c1 (stereo not drawn) [compound 2766] | 4.8 | 0.7 | 
CC(OP(=O)(N1CC1)N1CC1)c1ccc([N+](=O)[O-])o1 (stereo not drawn) [compound 2138] | 0.3 | 0.006 | 
CC(OP(=O)(N1CC1)N1CC1)c1ccc([N+](=O)[O-])c(C#N)c1 (stereo not drawn) [compound 2710] | 3 | 0.03 | 
CC(OP(=O)(N1CC1)N1CC1)c1ccc([N+](=O)[O-])c(N2CCCC2)c1 (stereo not drawn) [compound 2708] | 20 | 3 | 
CC(OP(=O)(N1CC1)N1CC1)c1ccc([N+](=O)[O-])c(-c2ccco2)c1 (stereo not drawn) [compound 2782] | 41 | 1.7 | 
O=[N+]([O-])c1ccc2c(c1)CCC2OP(=O)(N1CC1)N1CC1 (stereo not drawn) [compound 2652] | 2.2 | 0.02 | 
CC(OP(=O)(N1CC1)N1CC1)c1ccccc1[N+](=O)[O-] (stereo not drawn) [compound 2547] | 320 | 2.6 | 
CC(OP(=O)(N1CC1)N1CC1)c1ccc([N+](=O)[O-])c(N2CCN(C(C)C)CC2)c1 (stereo not drawn) [compound 2751] | 36 | 1.7 | 
Cn1c([N+](=O)[O-])nc(-c2ccco2)c1COP(=O)(N1CC1)N1CC1 [compound 2141] | 0.5 | 0.08 | 
Cc1cc(C(C)OP(=O)(N2CC2)N2CC2)ccc1[N+](=O)[O-] (stereo not drawn) [compound 2672] | 180 | 3.1 | 
Cn1c([N+](=O)[O-])cnc1C(OP(=O)(NCCBr)NCCBr)C1CC1 (stereo not drawn) [compound 2519] |  |  | IC50 [5]: > 500 µM; IC50 [6]: > 500 µM
Cn1c(C(OP(=O)(N2CC2)N2CC2)C(F)(F)F)cnc1[N+](=O)[O-] (stereo not drawn) [compound 2118] | 6.2 | 0.01 | 
CC(OP(=O)(N1CC1)N1CC1)c1ccc([N+](=O)[O-])c(-n2ncc3ccccc32)c1 (stereo not drawn) [compound 2767] | 2.3 | 0.2 | 
O=[N+]([O-])c1ccc2c(c1)CCCC2OP(=O)(N1CC1)N1CC1 (stereo not drawn) [compound 2675] | 3.4 | 0.05 | 
CCC(OP(=O)(N1CC1)N1CC1)c1ccc([N+](=O)[O-])cc1 (stereo not drawn) [compound 2681] | 28 | 0.3 | 
CC(OP(=O)(N1CC1)N1CC1)c1ccc([N+](=O)[O-])c(N2CCCCC2)c1 (stereo not drawn) [compound 2696] | 310 | 7.4 | 

SMILES | IC50 [1] [µM] | IC50 [2] [µM] | other results
CC(OP(=O)(N1CC1)N1CC1)c1ccc([N+](=O)[O-])c(-c2cccc(C#N)c2)c1 (stereo not drawn) [compound 2801] | 47 | 2.2 | 
CC(OP(=O)(N1CC1)N1CC1)c1ccc([N+](=O)[O-])c(OCC(F)(F)F)c1 (stereo not drawn) [compound 2698] | 3.7 | 1.6 | 
CC(OP(=O)(N1CC1)N1CC1)c1cc(F)c([N+](=O)[O-])cc1F (stereo not drawn) [compound 2721] | 9 | 0.02 | 
CC(OP(=O)(N1CC1)N1CC1)c1ccc([N+](=O)[O-])cc1F (stereo not drawn) [compound 2706] | 14 | 0.03 | 
CC(OP(=O)(N1CC1)N1CC1)c1cc(N(C)CCN(C)C)c([N+](=O)[O-])cc1F (stereo not drawn) [compound 2745] | 58 | 0.3 | 
CC(OP(=O)(N1CC1)N1CC1)c1ccc([N+](=O)[O-])c(-n2nnc3ccccc32)c1 (stereo not drawn) [compound 2777] | 3.4 | 0.01 | 
O=[N+]([O-])c1ccc(C(OP(=O)(N2CC2)N2CC2)C(F)(F)F)o1 (stereo not drawn) [compound 2139] | 0.3 | 0.004 | 
CC(C)(C)[Si](C)(C)OCCC(OP(=O)(N1CC1)N1CC1)c1ccc([N+](=O)[O-])cc1 (stereo not drawn) [compound 2712] | 0.3 | 0.2 | 
CC(OP(=O)(N1CC1)N1CC1)c1ccc([N+](=O)[O-])c(Br)c1 (stereo not drawn) [compound 2773] | 16 | 0.7 | 
CC(OP(=O)(N1CC1)N1CC1)c1ccc([N+](=O)[O-])c(-n2cnc([N+](=O)[O-])c2)c1 (stereo not drawn) [compound 2728] |  |  | IC50 [5]: 0.2 µM; IC50 [6]: 22 µM
CC(C)(C)C(OP(=O)(N1CC1)N1CC1)c1ccc([N+](=O)[O-])o1 (stereo not drawn) [compound 2127] | 18 | 0.02 | 
Cn1c([N+](=O)[O-])cnc1C(OP(=O)(N1CC1)N1CC1)C(C)(C)C (stereo not drawn) [compound 2535] | 500 | 26 | 
Cn1c([N+](=O)[O-])nc(CCN2CCOCC2)c1C(OP(=O)(N1CC1)N1CC1)C(F)(F)F (stereo not drawn) [compound 2147] | 310 | 1.1 | 
CC(OP(=O)(N1CC1)N1CC1)c1ccc([N+](=O)[O-])c(-c2ccc(F)cc2)c1 (stereo not drawn) [compound 2788] | 22 | 1.3 | 
CC(OP(=O)(N1CC1)N1CC1)c1ccc([N+](=O)[O-])c2ccccc12 (stereo not drawn) [compound 2824] | 1.7 | 0.02 | 
CC(OP(=O)(N1CC1)N1CC1)c1ccc([N+](=O)[O-])c(N2CCC(O)CC2)c1 (stereo not drawn) [compound 2752] | 270 | 5.7 | 
O=[N+]([O-])c1ccc(C(CCO)OP(=O)(N2CC2)N2CC2)cc1 (stereo not drawn) [compound 2714] | 94 | 0.5 | 
CNc1cc(C(C)OP(=O)(N2CC2)N2CC2)ccc1[N+](=O)[O-] (stereo not drawn) [compound 2679] | 34 | 2.9 | 
O=[N+]([O-])c1ccc2c(c1)CCCC2OP(=O)(N1CC1)N1CC1 (stereo not drawn) [compound 2676] |  |  | IC50 [3]: 3.7 µM; IC50 [4]: 0.1 µM
O=[N+]([O-])c1ccc(COP(=O)(N2CC2)N2CC2)c(-c2ccccc2)c1 [compound 2626] | 3.3 | 0.6 | 
Cc1cccc([N+](=O)[O-])c1C(C)OP(=O)(N1CC1)N1CC1 (stereo not drawn) [compound 2615] | 350 | 320 | 
CC(OP(=O)(N1CC1)N1CC1)c1c([N+](=O)[O-])ncn1C (stereo not drawn) [compound 2560] | 40 | 3.7 | 
CC(OP(=O)(N1CC1)N1CC1)c1ccc([N+](=O)[O-])c(Nc2ccccc2)c1 (stereo not drawn) [compound 2693] | 1.9 | 0.4 | 
CC(OP(=O)(N1CC1)N1CC1)c1ccc([N+](=O)[O-])c(F)c1 (stereo not drawn) [compound 2678] | 32 | 0.4 | 
